Patent US20260297070A1, “CYCLIC [COMPOUND LEFT OUT] WRN INHIBITORS” (Nimbus Wadjet, Inc., priority 2023, published 2026)

target: T1, human Werner helicase (WRN-BV08, Uniprot Q14191, amino acids 517-1235 with L1074F point mutation) (Homo sapiens, UniProt Q14191, L1074F); test: WRN (BV08) ADP-Glo Assay; type: biochemical; details: 0.15 nM WRN, 5 μM ATP, 0.1 nM DNA duplex, 15 min preincubation, 60 min at 25° C., pH 7.5, 1% DMSO; read-out: ADP-Glo_hWRN_IC50
T1 construct: Uniprot Q14191, amino acids 517-1235 with L1074F point mutation; TEV-cleavable 8×His (C, cleaved yes); made in house; host or cells: Sf9 insect cells (baculovirus)
Method in brief: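 ADP-Glo luminescence read-out of ATP hydrolysis. Conditions: 0.15 nM WRN, 5 μM ATP, 0.1 nM DNA duplex, 1% DMSO, 60 min at 25 °C after 15 min compound preincubation. Max/min controls were DMSO and 20 μM NSC-617145; IC50 from four-parameter fit.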

T1 sequence (Q14191 with tags, fused parts or gaps L1074F limits assumed): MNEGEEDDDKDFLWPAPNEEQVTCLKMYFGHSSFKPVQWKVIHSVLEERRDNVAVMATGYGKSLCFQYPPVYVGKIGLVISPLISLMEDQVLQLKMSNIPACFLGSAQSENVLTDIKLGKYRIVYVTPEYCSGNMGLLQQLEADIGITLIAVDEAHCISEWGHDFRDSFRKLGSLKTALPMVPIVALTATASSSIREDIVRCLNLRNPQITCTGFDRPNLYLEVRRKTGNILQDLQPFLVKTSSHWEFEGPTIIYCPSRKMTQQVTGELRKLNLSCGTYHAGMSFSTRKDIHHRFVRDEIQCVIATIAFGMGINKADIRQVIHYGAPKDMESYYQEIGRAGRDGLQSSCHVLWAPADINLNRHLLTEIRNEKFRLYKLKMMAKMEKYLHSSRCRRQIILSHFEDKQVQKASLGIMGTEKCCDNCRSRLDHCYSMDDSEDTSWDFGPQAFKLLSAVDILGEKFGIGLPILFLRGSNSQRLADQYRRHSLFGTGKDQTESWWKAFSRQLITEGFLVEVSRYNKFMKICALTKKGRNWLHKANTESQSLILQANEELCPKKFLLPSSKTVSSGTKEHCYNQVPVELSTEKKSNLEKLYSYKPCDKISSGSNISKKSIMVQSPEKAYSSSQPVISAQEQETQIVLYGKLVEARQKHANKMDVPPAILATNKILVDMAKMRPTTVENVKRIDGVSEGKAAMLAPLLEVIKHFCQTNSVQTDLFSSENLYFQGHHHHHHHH

Compared with `COc1cc(CN(C(=O)C(c2ccc(-c3ccc(F)c(F)c3)cc2F)n2cc(OC(F)F)cn2)[C@@H]2C=CS(=O)(=O)C2)ccn1` (single isomer, unassigned) [I-696, (2R*)-2-[4-(difluoromethoxy)-1H-pyrazol-1-yl]-N-[(3R)-1,1-dioxo-2,3-dihydro-1lambda6-thiophen-3-yl]-N-[(2-methoxypyridin-4-yl)methyl]-2-{3,3′,4′-trifluoro-[1,1′-biphenyl]-4-yl}acetamide], `COc1cc(CN(C(=O)C(c2ccc(-c3ccc(F)c(F)c3)cc2F)n2cc(C(F)F)cn2)[C@@H]2C=CS(=O)(=O)C2)ccn1` (single isomer, unassigned) [I-701, (2R*)-2-[4-(difluoromethyl)-1H-pyrazol-1-yl]-N-[(3R)-1,1-dioxo-2,3-dihydro-1lambda6-thiophen-3-yl]-N-[(2-methoxypyridin-4-yl)methyl]-2-{3,3′,4′-trifluoro-[1,1′-biphenyl]-4-yl}acetamide] is lower in IC50: over 50 µM for the first, under 0.5 µM for the second.

`COc1cc(CN(C(=O)C(OCCS(C)(=O)=O)c2ccc(-c3ccc(F)c(F)c3)cc2F)[C@@H]2C=CS(=O)(=O)C2)ccn1` (single isomer, unassigned) [I-702, (2R*)-N-[(3R)-1,1-dioxo-2,3-dihydro-1lambda6-thiophen-3-yl]-2-(2-methanesulfonylethoxy)-N-[(2-methoxypyridin-4-yl)methyl]-2-{3,3′,4′-trifluoro-[1,1′-biphenyl]-4-yl}acetamide] and `COc1cc(CN(C(=O)C(OCCC#N)c2ccc(-c3ccc(F)c(F)c3)cc2F)[C@@H]2C=CS(=O)(=O)C2)ccn1` (single isomer, unassigned) [I-735, (2R*)-2-(2-cyanoethoxy)-N-[(3R)-1,1-dioxo-2,3-dihydro-1lambda6-thiophen-3-yl]-N-[(2-methoxypyridin-4-yl)methyl]-2-{3,3′,4′-trifluoro-[1,1′-biphenyl]-4-yl}acetamide] fall in the same range of IC50: 0.5 to 5 µM for the first, 0.5 to 5 µM for the second.

Going from `COc1cc(CN(C(=O)C(c2ccc(-c3ccc(F)c(F)c3)cc2F)n2cc(C#N)cn2)[C@@H]2C=CS(=O)(=O)C2)ccn1` (single isomer, unassigned) [I-703, (2R*)-2-(4-cyano-1H-pyrazol-1-yl)-N-[(3R)-1,1-dioxo-2,3-dihydro-1lambda6-thiophen-3-yl]-N-[(2-methoxypyridin-4-yl)methyl]-2-{3,3′,4′-trifluoro-[1,1′-biphenyl]-4-yl}acetamide] to `COc1cc(CN(C(=O)C(c2ccc(-c3ccc(F)c(F)c3)cc2F)n2cc(C(F)F)cn2)[C@@H]2C=CS(=O)(=O)C2)ccn1` (single isomer, unassigned) [I-711, (2R*)-2-[4-(difluoromethyl)-1H-pyrazol-1-yl]-N-[(3R)-1,1-dioxo-2,3-dihydro-1lambda6-thiophen-3-yl]-N-[(2-methoxypyridin-4-yl)methyl]-2-{3,3′,4′-trifluoro-[1,1′-biphenyl]-4-yl}acetamide], the IC50 rises from under 0.5 µM to over 50 µM. The first is the more potent here.

Compared with `CC(C)(O)c1cc(CN(C(=O)Cn2cc(-c3ccc(F)c(F)c3F)cn2)C2C=CS(=O)(=O)C2)ccn1` (single isomer, unassigned) [I-704], `CC(C)(O)c1cc(CN(C(=O)Cn2ncc3cc(S(F)(F)(F)(F)F)ccc32)C2C=CS(=O)(=O)C2)ccn1` (single isomer, unassigned) [I-727] is higher in IC50: under 0.5 µM for the first, 0.5 to 5 µM for the second.

First: CC(C)(O)c1csc(CN(C(=O)Cc2ccc(S(F)(F)(F)(F)F)cc2)C2C=CS(=O)(=O)C2)n1 (single isomer, unassigned) [I-708]
Second: CC(C)(O)c1cc(CN(C(=O)C2Cc3cc(S(F)(F)(F)(F)F)ccc3O2)[C@@H]2C=CS(=O)(=O)C2)ccn1 (single isomer, unassigned) [I-730]
The IC50 of the first is higher: 5 to 10 µM for the first, under 0.5 µM for the second. The second is the more potent here.

`CC(C)(O)c1csc(CN(C(=O)Cc2ccc(S(F)(F)(F)(F)F)cc2)C2C=CS(=O)(=O)C2)n1` (single isomer, unassigned) [I-709] and `COC(C(=O)N(Cc1nc(C(C)(C)O)cs1)C1C=CS(=O)(=O)C1)c1ccc(-c2ccc(F)c(F)c2)cc1F` (single isomer, unassigned) [I-746, (2R*)-N-[(3R**)-1,1-dioxo-2,3-dihydro-1lambda6-thiophen-3-yl]-N-{[4-(2-hydroxypropan-2-yl)-1,3-thiazol-2-yl]methyl}-2-methoxy-2-{3,3′,4′-trifluoro-[1,1′-biphenyl]-4-yl}acetamide] cannot be ordered by IC50: under 0.5 µM for the first, under 0.5 µM for the second.

`COc1cc(CN(C(=O)C(OCCS(C)(=O)=O)c2ccc(-c3ccc(F)c(F)c3)cc2F)[C@@H]2C=CS(=O)(=O)C2)ccn1` (single isomer, unassigned) [I-710, (2R*)-N-[(3R)-1,1-dioxo-2,3-dihydro-1lambda6-thiophen-3-yl]-2-(2-methanesulfonylethoxy)-N-[(2-methoxypyridin-4-yl)methyl]-2-{3,3′,4′-trifluoro-[1,1′-biphenyl]-4-yl}acetamide] and `COc1cc(CN(C(=O)C(OCCC#N)c2ccc(-c3ccc(F)c(F)c3)cc2F)[C@@H]2C=CS(=O)(=O)C2)ccn1` (single isomer, unassigned) [I-736, (2R*)-2-(2-cyanoethoxy)-N-[(3R)-1,1-dioxo-2,3-dihydro-1lambda6-thiophen-3-yl]-N-[(2-methoxypyridin-4-yl)methyl]-2-{3,3′,4′-trifluoro-[1,1′-biphenyl]-4-yl}acetamide] cannot be ordered by IC50: over 50 µM for the first, over 50 µM for the second.

Compared with `COc1cc(CN(C(=O)C(c2ccc(-c3ccc(F)c(F)c3)cc2F)n2cc(C#N)cn2)[C@@H]2C=CS(=O)(=O)C2)ccn1` (single isomer, unassigned) [I-712, (2R*)-2-(4-cyano-1H-pyrazol-1-yl)-N-[(3R)-1,1-dioxo-2,3-dihydro-1lambda6-thiophen-3-yl]-N-[(2-methoxypyridin-4-yl)methyl]-2-{3,3′,4′-trifluoro-[1,1′-biphenyl]-4-yl}acetamide], `COc1cc(CN(C(=O)C(c2ccc(-c3ccc(F)c(F)c3)cc2F)n2ccc(C)n2)[C@@H]2C=CS(=O)(=O)C2)ccn1` (single isomer, unassigned) [I-737, (2R*)-N-[(3R)-1,1-dioxo-2,3-dihydro-1lambda6-thiophen-3-yl]-N-[(2-methoxypyridin-4-yl)methyl]-2-(3-methyl-1H-pyrazol-1-yl)-2-{3,3′,4′-trifluoro-[1,1′-biphenyl]-4-yl}acetamide] is lower in IC50: 0.5 to 5 µM for the first, under 0.5 µM for the second.

First: COc1cc(CN(C(=O)C(c2ccc(-c3ccc(F)c(F)c3)cc2F)n2nccc2C)[C@@H]2C=CS(=O)(=O)C2)ccn1 (single isomer, unassigned) [I-738, (2R*)-N-[(3R)-1,1-dioxo-2,3-dihydro-1lambda6-thiophen-3-yl]-N-[(2-methoxypyridin-4-yl)methyl]-2-(5-methyl-1H-pyrazol-1-yl)-2-{3,3′,4′-trifluoro-[1,1′-biphenyl]-4-yl}acetamide]
Second: COc1cc(CN(C(=O)C(OCc2cnn(C)c2)c2ccc(-c3ccc(F)c(F)c3)cc2F)[C@@H]2C=CS(=O)(=O)C2)ccn1 (single isomer, unassigned) [I-742, (2R*)-N-[(3R)-1,1-dioxo-2,3-dihydro-1lambda6-thiophen-3-yl]-N-[(2-methoxypyridin-4-yl)methyl]-2-[(1-methyl-1H-pyrazol-4-yl)methoxy]-2-{3,3′,4′-trifluoro-[1,1′-biphenyl]-4-yl}acetamide]
The IC50 of the first is higher: over 50 µM for the first, 0.5 to 5 µM for the second. The second is the more potent here.

Compared with `COc1cc(CN(C(=O)C(OC2COC2)c2ccc(-c3ccc(F)c(F)c3)cc2F)[C@@H]2C=CS(=O)(=O)C2)ccn1` (single isomer, unassigned) [I-740, (2R*)-N-[(3R)-1,1-dioxo-2,3-dihydro-1lambda6-thiophen-3-yl]-N-[(2-methoxypyridin-4-yl)methyl]-2-(oxetan-3-yloxy)-2-{3,3′,4′-trifluoro-[1,1′-biphenyl]-4-yl}acetamide], `COc1cc(CN(C(=O)C(OCc2cnn(C)c2)c2ccc(-c3ccc(F)c(F)c3)cc2F)[C@@H]2C=CS(=O)(=O)C2)ccn1` (single isomer, unassigned) [I-743, (2R*)-N-[(3R)-1,1-dioxo-2,3-dihydro-1lambda6-thiophen-3-yl]-N-[(2-methoxypyridin-4-yl)methyl]-2-[(1-methyl-1H-pyrazol-4-yl)methoxy]-2-{3,3′,4′-trifluoro-[1,1′-biphenyl]-4-yl}acetamide] is higher in IC50: 0.5 to 5 µM for the first, over 50 µM for the second.

First: COc1cc(CN(C(=O)C(OC2COC2)c2ccc(-c3ccc(F)c(F)c3)cc2F)[C@@H]2C=CS(=O)(=O)C2)ccn1 (single isomer, unassigned) [I-741, (2R*)-N-[(3R)-1,1-dioxo-2,3-dihydro-1lambda6-thiophen-3-yl]-N-[(2-methoxypyridin-4-yl)methyl]-2-(oxetan-3-yloxy)-2-{3,3′,4′-trifluoro-[1,1′-biphenyl]-4-yl}acetamide]
Second: COc1cc(CN(C(=O)C(c2ccc(-c3ccc(F)c(F)c3)cc2F)n2nccc2C)[C@@H]2C=CS(=O)(=O)C2)ccn1 (single isomer, unassigned) [I-749, (2R*)-N-[(3R)-1,1-dioxo-2,3-dihydro-1lambda6-thiophen-3-yl]-N-[(2-methoxypyridin-4-yl)methyl]-2-(5-methyl-1H-pyrazol-1-yl)-2-{3,3′,4′-trifluoro-[1,1′-biphenyl]-4-yl}acetamide]
The IC50 of the first is higher: over 50 µM for the first, 0.5 to 5 µM for the second.

`COC(C(=O)N(Cc1nc(C(C)(C)O)cs1)C1C=CS(=O)(=O)C1)c1ccc(-c2ccc(F)c(F)c2)cc1F` (single isomer, unassigned) [I-747, (2R*)-N-[(3R**)-1,1-dioxo-2,3-dihydro-1lambda6-thiophen-3-yl]-N-{[4-(2-hydroxypropan-2-yl)-1,3-thiazol-2-yl]methyl}-2-methoxy-2-{3,3′,4′-trifluoro-[1,1′-biphenyl]-4-yl}acetamide] gave an IC50 of 5 to 10 µM.
